From US11596620B2, “Formulations with reduced oxidation” (Genentech, Inc., priority 2013, dated 2023)

Experiments:
[1] = Cyclic voltammetry (CV) screening assay, oxidation potential; format: physicochemical
Method: The oxidation/reduction characteristics of the compounds were investigated. Several compounds, including L-Trp and derivatives, were evaluated for the protection of Trp oxidation in proteins using cyclic voltammetry (CV) and rank ordered based on their oxidation potentials (Table 2). Specifically, the candidate antioxidants were dissolved in deionized water and then added to a 0.2 M lithium perchlorate electrolyte solution. […] Solutions were scanned from −0.10 V to +1.50 V at a scan rate of either 100 or 500 mV/sec. The analytical cell was purged for four minutes with nitrogen before scanning of each antioxidant solution. The input was a linear scan of the potential of a working electrode, and the output was measurement of the resulting current. […] Redox reactions were characterized by sharp increases or decreases in current (peaks). The potential at which an oxidation reaction occurred was referred to as the anodic peak potential (or oxidation potential), and the potential at which a reduction occurred was referred to as is the cathodic peak (or reduction) potential.

[2] = Photosensitivity screening assay (H2O2 by Amplex Ultra Red after light exposure); format: physicochemical
Method: As a screening tool, antioxidant candidates were exposed to light for four hours at 250 W/m^2 and the resulting H2O2 formation was quantified by the Amplexassay. Specifically, antioxidants were prepared to 1 mM in 20 mM histidine acetate buffer at pH 5.5. The 1 mM antioxidant solutions were aliquoted into glass vials (2 mL/glass vial) and exposed to four hours of light at 250 W/m^2 in an Atlas SunTest CPS+ Xenon Test Instrument (Chicago, Ill.). Total UV dose was 90 watt-hours/square meter and total visible dose was 0.22 million lux hours over the 4-hour period. Control vials were wrapped in aluminum foil and treated similarly. The amount of hydrogen peroxide generated after exposure to light was measured using the Amplex® Ultra Red Assay (Invitrogen, Carlsbad, Calif.) following the manufacturer's recommended procedure. On addition of horseradish peroxidase (HRP), the dye reacted 1:1 stoichiometrically with H2O2, resulting in the production of fluorescent oxidation product resorufin. In this study, fluorescence readings were obtained using a Spectra Max M2 Micro-plate Reader (Molecular Devices, Sunnyvale, Calif.) with excitation and emission set at 560 nm and 590 nm, respectively. Final H2O2 concentrations were determined using a standard curve ranging from 0 μm to 20 μm.

[3] = system: mAb1; experiment: mAb1 light stress study (16 hours at 250 W/m^2), RP-HPLC; format: physicochemical, human; conditions: 16 hours of light at 250 W/m^2; for Light-induced Fab oxidation, effect in words / Light-induced Fc oxidation, effect in words: excipient 1 mM; for Fab oxidation increase over the control level (mAb1 Ref Mat): excipient 1 mM or none; for Light-induced Fc oxidation, effect in words: compared to no excipient
Method: (§1) The fragments were reduced with DTT, and then separated and identified via Liquid Chromatography-Mass Spectrometry (LC-MS). […] Comparison of area integrated under the oxidized and native peaks was used to quantify HC Fab and Fc oxidation. […] By using the papain digest RP-HPLC method in the present study it was possible to investigate Trp residue oxidation by quantifying HC Fab oxidation, and Met residue oxidation by quantifying HC Fc oxidation.
Antioxidants were added at 1 mM. Glass vials containing these formulations were exposed to 250 W/m^2 light in an Atlas SunTest CPS+ Xenon Test Instrument (Chicago, Ill.). Control vials were wrapped in aluminum foil and treated similarly. After light exposure, solutions were prepared for analysis by reverse-phase HPLC as described above.

[4] = system: mAb1; experiment: mAb1 AAPH stress study, RP-HPLC; format: physicochemical, human; conditions: for Fab (Trp residue) oxidation: mAb1 with AAPH for 24 hours at 40° C., antioxidants at 1 mM or none
Method: as §1
Antioxidants were added at 1 mM. […] After buffer exchange, each solution was prepared for analysis by reverse-phase HPLC as described above.

[5] = system: mAb1; experiment: Light stress of mAb1 formulation (eight hours at 250 W/m^2), papain digest RP-HPLC; format: physicochemical, human; conditions: for Fc oxidation, effect in words: no excipient, or 10, 25, 50 and 100 mM L-Met added to 1 mM L-Trp
Method: L-tryptophan (L-Trp), an antioxidant used in protein formulations, has been recently shown to be photosensitive (Igarashi et al., Anal Sci 23(8):943-8 (2007)) and to have the ability to produce H2O2 upon light exposure. […] Control vials were wrapped in aluminum foil and treated similarly. After light exposure, solutions were prepared for analysis by reverse-phase HPLC. […] Following incubation, 900 μL of the solution was combined with 100 μL of 1 M dithiothreitol (DTT) and incubated for another thirty minutes at 37° C. Samples were then run on an Agilent, Inc. 1100/1200 HPLC system (Santa Clara, Calif.) equipped with UV detection at 280 nm in conjunction with a Varian, Inc. Pursuit 3 μm, 2 mm ID×250 mm diphenyl column (Palo Alto, Calif.). Mobile Phase A was 0.1% TFA in water. Mobile Phase B was 0.1% TFA in acetonitrile. The mobile phase gradient increased linearly from 34% B at 0 minutes to 43% B at 50.0 minutes, then to 95% B at 50.1 minutes. The gradient remained at 95% B until 60.1 minutes, and then decreased linearly from 95% B to 34% B between 60.1 and 60.2 minutes. The gradient remained at 34% B until the end of the cycle at 80.2 minutes. The column temperature was 65° C., total flow rate was 0.2 mL/min, and injection volume of each sample was 6 μL. Chromatograms were then integrated for quantification of oxidation.

[6] = system: mAb1; experiment: mAb1 Fenton stress study (H2O2 + Fe), RP-HPLC; format: physicochemical, human; conditions: 10 ppm H2O2 and 0.2 mM Fe(III), 40° C. for 3 hours; no excipient
Method: Antioxidants were added at a final concentration of 1 mM. […] After incubation, each reaction was quenched by addition of 100 mM L-Met and then prepared for analysis by reverse-phase HPLC as described above.
The Fenton reaction, using a mixture of H2O2 and Fe ions, generates oxidation through a metal catalyzed, hydroxyl radical reaction (Prousek et al., Pure and Applied Chemistry 79(12):2325-2338 (2007)). This reaction generated Fab, i.e. tryptophan, oxidation in mAb1. The reaction was also carried out in the presence of select antioxidants that were useful against both AAPH and light induced oxidation as reported above. Data related to the antioxidant properties against Fenton mediated reaction were analyzed using the RP-HPLC assay as described above. The Fenton reaction used 10 ppm of H2O2 and 0.2 mM of Fe(III). The reaction was incubated at 40° C. for 3 hours, quenched with 100 mM L-Met and analyzed using RP-HPLC after papain digest. All samples were the average of three separate vials, and mAb1 control (Ref Mat) was one vial with five independent injections on the HPLC. […] In regards to protection against Fc oxidation, the tested excipients (other than salicylic acid) performed slightly better than L-Trp.

[7] = anodic peak potential, glassy carbon working electrode, 0.2M lithium perchlorate
[8] = 1 mM in 20 mM histidine acetate pH 5.5, four hours of light at 250 W/m^2
[9] = eight hours of light at 250 W/m^2

Molecule	Oxidation Potential [1, 7] [V vs Ag/AgCl]	(H2O2 produced by Compound)/(H2O2 produced by L-Trp) [2, 8]	H2O2 produced compared to L-Trp, in words [2, 8]	Light-induced Fab oxidation, effect in words [3]	Fab (Trp residue) oxidation [4]	Oxidation potential relative to L-Trp, in words ([1]; cyclic voltammetry)	Fab oxidation increase over the control level (mAb1 Ref Mat) [3] [fold]	also measured
N[C@@H](Cc1c[nH]c2ccc(O)cc12)C(=O)O [5-Hydroxy-L-Trp, 5-hydroxy-L-tryptophan]	0.565	0.09	about one tenth	near control levels	about 2%			
Oc1ccc2[nH]ccc2c1 [5-Hydroxyindole]	0.580	−0.08		near control levels	about 2%			
Oc1cccc2cc[nH]c12 [7-Hydroxyindole]		−0.03		near control levels	about 2%			
CSCC[C@H](N)C(=O)O [L-Met, L-methionine]								Fab oxidation, effect in words ([5]; 10, 25, 50, and 100 mM L-Met added to formulation containing 1 mM L-Trp, eight hours of light): appeared to reduce Fab oxidation slightly; Fc oxidation, effect in words [5, 9]: reduced the amount of Fc oxidation
NC(=O)[C@@H](N)Cc1c[nH]c2ccccc12 [L-Trpamide, L-tryptophanamide]	1.015	0.43				higher oxidation potential than L-Trp	8	Light-induced Fc oxidation, effect in words [3]: more Fc oxidation
CC(=O)N[C@@H](Cc1c[nH]c2ccccc12)C(=O)O [N-Acetyl-L-Trp, N-acetyl-L-tryptophan]	0.875	0.31						
O=C(O)c1ccccc1O [Salicylic Acid]	1.080					higher oxidation potential than L-Trp	8	Oxidation Potential ([1]; cyclic voltammetry, 0.2 M lithium perchlorate): 1.080 V vs Ag/AgCl; (H2O2 produced by Compound)/(H2O2 produced by L-Trp) ([2]; pH 5.5): 0.03; H2O2 produced compared to L-Trp, in words ([2]; pH 5.5): very little H2O2; Light-induced Fc oxidation, effect in words [3]: more Fc oxidation; AAPH-induced Fab oxidation, effect in words ([4]; excipient 1 mM, AAPH 24 hours at 40° C.): almost no effect
NCCc1c[nH]c2ccc(O)cc12 [Serotonin (5-Hydroxytryptamine), 5-Hydroxytryptamine]	0.600	0.03	very little H2O2	near control levels	about 2%			
NCCc1c[nH]c2ccccc12 [Tryptamine]	1.010	0.53	about half as much H2O2			higher oxidation potential than L-Trp		H2O2 produced compared to L-Trp, in words ([2]; 1 mM in 20 mM histidine acetate pH 5.5, four hours of light at 250 W/m^2, listed as tryptamine): two times less
drozitumab [mAb1]							3.5	Increase in Fc oxidation over the control level ([3]; no excipient): 40%; Fc oxidation, effect in words [5, 9]: only a minor increase in Fc oxidation; Fab oxidation ([5]; mAb1 5 mg/mL, eight hours of light at 250 W/m^2, no excipient or 1 mM L-Trp, reference material and foil control about 2%): 4%; Oxidation in the Fab region over the control [6]: about four times
